One assay concerns the target human FLAP (Homo sapiens (Human), UniProt P20292). The assay is described as follows: FLAP binding assay (HTRF format). Summed up:
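HTRF ratio read-out; two independent plates, samples in duplicate on each, values averaged across plates.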
(In TR-FRET formats the signal depends on donor and acceptor labels being close together.)

For assay [1], the system named is leukotriene pathway in human whole blood (LTB4 levels). Description: Human whole blood assay (A23187-stimulated LTB4). The following applies: Homo sapiens, read-out: LTB4 IC50 1:1. Type of assay: cell-based. Summed up:
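Single-replicate data from at least one healthy donor: compound pre-incubated 15 min at 37° Celsius in 1:1 RPMI-diluted heparinised blood, followed by 30 min calcium ionophore A23187 (7 μg/mL) challenge at 37° Celsius. LTB4 in plasma quantified by kit; IC50 via 4-parameter equation.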

[2] abbreviates: human FLAP wild type, HTRF format, average of two plates, duplicates.
The mark [3] stands for this setting: human whole blood diluted 1:1 in RPMI, A23187-stimulated LTB4.
Where [4] appears, read: human whole blood diluted 1:1, A23187-stimulated.

Here are results for 32 compounds from patent US9079866B2, “Flap modulators” (JANSSEN PHARMACEUTICA NV, priority 2013, dated 2015).

What is called Ki is the equilibrium dissociation constant of an inhibitor or competing ligand from its target. A word on the IC50: it is the point on the concentration scale where inhibition reaches its midpoint.

SMILES strings stand for the structures. Counter-ions that a name gives are not always drawn. Like-named read-outs stand apart in the source and are kept apart here.

Sequence of human FLAP (P20292 whole entry): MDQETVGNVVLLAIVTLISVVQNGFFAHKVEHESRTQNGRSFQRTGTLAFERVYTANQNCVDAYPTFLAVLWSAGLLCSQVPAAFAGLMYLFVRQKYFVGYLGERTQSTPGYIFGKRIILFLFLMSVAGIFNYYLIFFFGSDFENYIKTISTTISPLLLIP

Regarding `CN1CCN(S(=O)(=O)c2cc(C(F)(F)F)ccc2-c2ccc(-c3cnc(N)cn3)c(F)c2)CC1` [Example 212, 5-{3-Fluoro-2′-[(4-methylpiperazin-1-yl)sulfonyl]-4′-(trifluoromethyl)biphenyl-4-yl}pyrazin-2-amine], the affinity on human FLAP (setting [2]) corresponds to a Ki of 1 nM. Moreover, the IC50 in assay [1] (setting [3]) turned out to be 5 nM.

In turn, `CS(=O)(=O)c1ccccc1-c1ccc(-c2cnc(N)cn2)c(F)c1` [Example 1, 5-[3-Fluoro-2′-(methylsulfonyl)biphenyl-4-yl]pyrazin-2-amine] had a Ki at human FLAP (setting [2]) of 217 nM. Moreover, in assay [1] (setting [3]), the IC50 was determined as 860 nM.

`CS(=O)(=O)Nc1ccccc1-c1ccc(-c2cnc3[nH]ccc3n2)c(F)c1` [Example 369, N-[3′-Fluoro-4′-(5H-pyrrolo[2,3-b]pyrazin-2-yl)biphenyl-2-yl]methanesulfonamide] yielded a Ki on human FLAP (setting [2]) of 17 nM. In addition, the IC50 in assay [1] (setting [3]) is 375 nM.

In turn, `CC(C)(C)OC(=O)N1CCC(COc2ncccc2-c2ccc(-c3cnc(N)cn3)c(F)c2)C1` (stereo not shown) [Example 406, tert-Butyl 3-[({3-[4-(5-aminopyrazin-2-yl)-3-fluorophenyl]pyridin-2-yl}oxy)methyl]pyrrolidine-1-carboxylate] came in with a Ki on human FLAP (wild type FLAP, HTRF format) of 135 nM. Moreover, the IC50 in assay [1] (setting [4]) worked out at 4310 nM.

`CNS(=O)(=O)c1ccccc1-c1ccc(-c2cnc3[nH]ccc3c2)c(F)c1` [Example 426, 3′-Fluoro-N-methyl-4′-(1H-pyrrolo[2,3-b]pyridin-5-yl)biphenyl-2-sulfonamide] returned a Ki on human FLAP (wild type FLAP, HTRF format) of 2 nM. In addition, in assay [1] (setting [4]), the IC50 was 73 nM.

`Nc1cnc(-c2ccc(-c3ccccc3S(=O)(=O)NCCCCCO)cc2F)cn1` [Example 132, 4′-(5-Aminopyrazin-2-yl)-3′-fluoro-N-(5-hydroxypentyl)biphenyl-2-sulfonamide] displayed a Ki on human FLAP (setting [2]) of 2 nM. In addition, the IC50 in assay [1] (setting [3]) was found to be 11 nM.

On to `C[C@H](O)CNS(=O)(=O)c1ccccc1-c1ccc(-c2cnc(N)nc2)nc1` [Example 688, 2-[6-(2-Aminopyrimidin-5-yl)pyridin-3-yl]-N-[(2S)-2-hydroxypropyl]benzenesulfonamide], for which the affinity on human FLAP (wild type FLAP, HTRF format) corresponds to a Ki of 696 nM. Moreover, the IC50 in assay [1] (setting [4]) came out at 1180 nM.

As for `Nc1cnc(-c2ccc(-c3cccnc3S(=O)(=O)C3CC3)cc2F)cn1` [Example 829, 5-{4-[2-(Cyclopropylsulfonyl)pyridin-3-yl]-2-fluorophenyl}pyrazin-2-amine formic acid salt], the Ki on human FLAP (wild type FLAP, HTRF format) amounted to 3.2 nM. The concentration for half-maximal inhibition (IC50) in assay [1] (setting [4]) stood at 5.96 nM.

On human FLAP (wild type FLAP, HTRF format), `CC(C)S(=O)(=O)c1ncccc1-c1ccc(-c2cnc3[nH]ccc3c2)c(F)c1` [Example 826, 5-(2-Fluoro-4-(2-(isopropylsulfonyl)pyridine-3-yl)phenyl)-1H-pyrrolo[2,3-b]pyridine] came in with a Ki of 0.7 nM. In addition, in assay [1] (setting [4]), the IC50 is 19.9 nM.

For `Nc1cnc(-c2ccc(-c3ccccc3C(F)(F)F)cc2F)cn1` [Example 472, 5-[3-Fluoro-2′-(trifluoromethyl)biphenyl-4-yl]pyrazin-2-amine], at human FLAP (wild type FLAP, HTRF format), the Ki came out at 145 nM. Also, in assay [1] (setting [4]), the IC50 came out at 2520 nM.

Consider `CNC1CCN(S(=O)(=O)c2ccccc2-c2ccc(-c3cnc(N)cn3)c(F)c2)CC1` [Example 72, 5-(3-Fluoro-2′-{[4-(methylamino)piperidin-1-yl]sulfonyl}biphenyl-4-yl)pyrazin-2-amine], for which the Ki at human FLAP (setting [2]) was determined as 111 nM. Also, the IC50 in assay [1] (setting [3]) came out at 168 nM.

Regarding `Nc1cnc(-c2ccc(-c3ccccc3-c3cnc(N)cn3)cc2F)cn1` [Example 840, 5,5′-(3′-Fluorobiphenyl-2,4′-diyl)dipyrazin-2-amine], the inhibition constant Ki on human FLAP (wild type FLAP, HTRF format) came out at 12.7 nM. For the same compound, the IC50 in assay [1] (setting [4]) stood at 99.6 nM.

`C[C@H](NS(=O)(=O)c1ccccc1-c1ccc(-c2ccc(N)nc2)c(F)c1)C(F)(F)F` [Example 355, (S)-4′-(6-Aminopyridin-3-yl)-3′-fluoro-N-(1,1,1-trifluoropropan-2-yl)-[1,1′-biphenyl]-2-sulfonamide]: affinity at human FLAP (setting [2]) was put at a Ki of 5 nM. Besides, in assay [1] (setting [3]), the IC50 turned out to be 29 nM.

At human FLAP (wild type FLAP, HTRF format), `Nc1cnc(-c2ccc(-c3ccc(C(F)(F)F)cc3CN3CCOCC3)cc2F)cn1` [Example 605, 5-[3-Fluoro-2′-(morpholin-4-ylmethyl)-4′-(trifluoromethyl)biphenyl-4-yl]pyrazin-2-amine] returned a Ki of 1.9 nM. Further, the IC50 in assay [1] (setting [4]) is 97.8 nM.

On to `Nc1ncc(-c2ccc(-c3ccccc3S(=O)(=O)C3CC3)cc2F)cn1` [Example 254, 5-[2′-(Cyclopropylsulfonyl)-3-fluorobiphenyl-4-yl]pyrimidin-2-amine], for which, at human FLAP (setting [2]), the Ki amounted to 80 nM. The IC50 in assay [1] (setting [3]) is 586 nM.

With `CC(C)Oc1ncccc1-c1ccc(-c2cnc(N)nc2)c(F)c1` [Example 408, 5-{2-Fluoro-4-[2-(1-methylethoxy)pyridin-3-yl]phenyl}pyrimidin-2-amine], the affinity on human FLAP (wild type FLAP, HTRF format), expressed as Ki, was 128 nM. Further, the IC50 in assay [1] (setting [4]) was 1140 nM.

`Nc1cnc(-c2ccc(-c3ccccc3S(=O)(=O)N[C@H](CO)Cc3ccccc3)cc2F)cn1` [Example 116, (S)-4′-(5-Aminopyrazin-2-yl)-3′-fluoro-N-(1-hydroxy-3-phenylpropan-2-yl)-[1,1′-biphenyl]-2-sulfonamide] displayed a Ki at human FLAP (setting [2]) of 1 nM. Also, in assay [1] (setting [3]), the IC50 was determined as 12 nM.

As for `CC(C)Oc1ccccc1-c1ccc(-c2cnc(N)cn2)c(F)c1` [Example 487, 5-[3-Fluoro-2′-(1-methylethoxy)biphenyl-4-yl]pyrazin-2-amine], the Ki on human FLAP (wild type FLAP, HTRF format) was 54 nM. In addition, in assay [1] (setting [4]), the IC50 is 444 nM.

`Nc1cnc(-c2ccc(-c3ccccc3S(=O)(=O)NC3CC4CCC3C4)cc2F)cn1` (racemic) [Example 10, racemic (endo)-4′-(5-Aminopyrazin-2-yl)-N-bicyclo[2.2.1]hept-2-yl-3′-fluorobiphenyl-2-sulfonamide]: affinity at human FLAP (setting [2]) was put at a Ki of 3 nM. For the same compound, in assay [1] (setting [3]), the IC50 was determined as 53 nM.

Consider `CC(C)(NS(=O)(=O)c1ccccc1-c1ccc(-c2ccc(N)nc2)c(F)c1)C(F)(F)F` [Example 350, 4′-(6-Aminopyridin-3-yl)-3′-fluoro-N-(1,1,1-trifluoro-2-methylpropan-2-yl)-[1,1′-biphenyl]-2-sulfonamide], for which affinity on human FLAP (setting [2]) was put at a Ki of 2 nM. Moreover, the IC50 in assay [1] (setting [3]) is 26 nM.

On human FLAP (setting [2]), `Nc1cnc(-c2ccc(-c3ccccc3S(=O)(=O)N3CCC(F)(F)CC3)cc2F)cn1` [Example 49, 5-{2′-[(4,4-Difluoropiperidin-1-yl)sulfonyl]-3-fluorobiphenyl-4-yl}pyrazin-2-amine] came in with a Ki of 2 nM. The 50% inhibitory concentration (IC50) in assay [1] (setting [3]) worked out at 21 nM.

As for `COc1ncc(-c2ccccc2-c2ccc(-c3cnc(N)cn3)c(F)c2)cn1` [Example 846, 5-[3-Fluoro-2′-(2-methoxypyrimidin-5-yl)biphenyl-4-yl]pyrazin-2-amine], affinity at human FLAP (wild type FLAP, HTRF format) was put at a Ki of 10.5 nM. The IC50 in assay [1] (setting [4]) amounted to 41.8 nM.

`Nc1cnc(-c2ccc(-c3ccccc3Oc3ccnc(C(F)(F)F)n3)cc2F)cn1` [Example 547, 5-(3-Fluoro-2′-{[2-(trifluoromethyl)pyrimidin-4-yl]oxy}biphenyl-4-yl)pyrazin-2-amine] gave a Ki at human FLAP (wild type FLAP, HTRF format) of 35 nM. Besides, the IC50 in assay [1] (setting [4]) amounted to 104 nM.

For `Nc1cnc(-c2ccc(-c3ccccc3CS(=O)(=O)N3CC(O)C3)cc2F)cn1` [Example 222, 1-({[4′-(5-Aminopyrazin-2-yl)-3′-fluorobiphenyl-2-yl]methyl}sulfonyl)azetidin-3-ol formic acid salt], the affinity at human FLAP (setting [2]) corresponds to a Ki of 118 nM. Besides, the IC50 in assay [1] (setting [3]) was found to be 638 nM.

`Nc1cnc(-c2ccc(-c3ccccc3S(=O)(=O)C3CCC3)cc2F)cn1` [Example 196, 5-[2′-(Cyclobutylsulfonyl)-3-fluorobiphenyl-4-yl]pyrazin-2-amine] registered a Ki on human FLAP (setting [2]) of 10 nM. For the same compound, the IC50 in assay [1] (setting [3]) was 104 nM.

With `CC(C)(C)NC(=O)c1cc(C(F)(F)F)ccc1-c1ccc(-c2cnc(N)nc2)c(F)c1` [Example 794, 2-[4-(2-Aminopyrimidin-5-yl)-3-fluoro-phenyl]-N-tert-butyl-5-(trifluoromethyl)benzamide], at human FLAP (wild type FLAP, HTRF format), the affinity, expressed as Ki, was 32.8 nM. The IC50 in assay [1] (setting [4]) amounted to 3940 nM.

`Nc1ncc(-c2ccc(-c3ccccc3Oc3ccnc(C(F)(F)F)n3)cc2F)cn1` [Example 548, 5-(3-Fluoro-2′-{[2-(trifluoromethyl)pyrimidin-4-yl]oxy}biphenyl-4-yl)pyrimidin-2-amine] came in with a Ki at human FLAP (wild type FLAP, HTRF format) of 467 nM. The concentration for half-maximal inhibition (IC50) in assay [1] (setting [4]) worked out at 741 nM.

`Nc1cnc(-c2ccc(-c3ccccc3S(=O)(=O)N(CCO)CCO)cc2F)cn1` [Example 138, 4′-(5-Aminopyrazin-2-yl)-3′-fluoro-N,N-bis(2-hydroxyethyl)biphenyl-2-sulfonamide] had a Ki at human FLAP (setting [2]) of 11 nM. In addition, the IC50 in assay [1] (setting [3]) was 174 nM.

`N#CCCN1CCN(S(=O)(=O)c2ccccc2-c2ccc(-c3cnc(N)cn3)c(F)c2)CC1` [Example 174, 3-(4-{[4′-(5-Aminopyrazin-2-yl)-3′-fluorobiphenyl-2-yl]sulfonyl}piperazin-1-yl)propanenitrile] displayed a Ki at human FLAP (setting [2]) of 2 nM. Also, the IC50 in assay [1] (setting [3]) is 23 nM.

With `Nc1ncc(-c2ccc(-c3ccccc3S(=O)(=O)N[C@H](c3ccccc3)C(F)(F)F)cc2F)cn1` [Example 291, 4′-(2-Aminopyrimidin-5-yl)-3′-fluoro-N-[(1R)-2,2,2-trifluoro-1-phenylethyl]biphenyl-2-sulfonamide trifluoroacetic acid salt], the Ki at human FLAP (read-out: FLAP Binding wild type HTRF Ki) was determined as 7 nM. Also, the IC50 in assay [1] (setting [3]) is 421 nM.

`CC(C)(C)NS(=O)(=O)c1ccccc1-c1ccc(-c2cnc3[nH]cnc3n2)c(F)c1` [Example 447, N-tert-Butyl-3′-fluoro-4′-(1H-imidazo[4,5-b]pyrazin-5-yl)biphenyl-2-sulfonamide] had a Ki on human FLAP (wild type FLAP, HTRF format) of 3 nM. Further, the IC50 in assay [1] (setting [4]) is 144 nM.

Compound `Nc1ncc(-c2ccc(-c3ccccc3S(=O)(=O)Nc3ccccc3)cc2F)cn1` [Example 285, 4′-(2-Aminopyrimidin-5-yl)-3′-fluoro-N-phenylbiphenyl-2-sulfonamide trifluoroacetic acid salt] came in with a Ki at human FLAP (setting [2]) of 3 nM. The IC50 in assay [1] (setting [3]) stood at 111 nM.
